This note sets out measurements from the OligoGym collection.

The target of the series is HBV. The following applies: ASO.

“And” between values parts separate entries of the source, which are not always exact repeats. Equal entries are not always repeated. HELM strings list units from the 5' end as sugar, base in round brackets, then linkage (d deoxyribose, r ribose, m 2'-O-methyl, p phosphodiester). Methylation of C is not given here. [moe] = 2'-O-(2-methoxyethyl) (MOE); [cEt] = constrained ethyl (cEt); [sp] = phosphorothioate linkage

With “RNA1{[moe](A)[sp].[cEt](A)[sp].[cEt](G)[sp].d(C)[sp].d(G)[sp].d(A)[sp].d(A)[sp].d(G)[sp].d(T)[sp].d(G)[sp].d(C)[sp].d(A)[sp].d(C)[sp].[cEt](A)[sp].[cEt](C)[sp].[moe](G)}$$$$V2.0”, the target mRNA inhibition by setting is: (HepG2, 0.0092593 µM) 28%; (HepG2, 0.0277778 µM) 57%; (HepG2, 0.07 µM) 80% and 85%; (HepG2, 0.0833333 µM) 80%; (HepG2, 0.25 µM) 89%.

Turning to “RNA1{[moe](A)[sp].[cEt](A)[sp].d(G)[sp].d(C)[sp].d(G)[sp].d(A)[sp].d(A)[sp].d(G)[sp].d(T)[sp].d(G)[sp].d(C)[sp].d(A)[sp].[cEt](C)[sp].[moe](A)[sp].[cEt](C)[sp].[moe](G)}$$$$V2.0”, the target mRNA inhibition is, setting by setting: (HepG2, 0.0092593 µM) 20%; (HepG2, 0.0277778 µM) 40%; (HepG2, 0.07 µM) 82% and 75%; (HepG2, 0.0833333 µM) 75%; (HepG2, 0.25 µM) 89%.

For the substance “RNA1{[moe](A)[sp].[cEt](A)[sp].d(G)[sp].d(T)[sp].d(C)[sp].d(C)[sp].d(A)[sp].d(C)[sp].d(C)[sp].d(A)[sp].d(C)[sp].d(G)[sp].[cEt](A)[sp].[moe](G)[sp].[cEt](T)[sp].[moe](C)}$$$$V2.0”, the target mRNA inhibition (HepG2, 0.07 µM) is 43% and 40%.

For the substance “RNA1{[moe](A)[sp].[cEt](A)[sp].d(T)[sp].d(T)[sp].d(T)[sp].d(A)[sp].d(T)[sp].d(G)[sp].d(C)[sp].d(C)[sp].d(T)[sp].d(A)[sp].[cEt](C)[sp].[moe](A)[sp].[cEt](G)[sp].[moe](C)}$$$$V2.0”, the target mRNA inhibition (HepG2, 0.07 µM) is 60% and 59%.

Consider “RNA1{[moe](A)[sp].[cEt](C)[sp].[cEt](T)[sp].d(A)[sp].d(G)[sp].d(T)[sp].d(A)[sp].d(A)[sp].d(A)[sp].d(C)[sp].d(T)[sp].d(G)[sp].d(A)[sp].[cEt](G)[sp].[cEt](C)[sp].[moe](C)}$$$$V2.0”, for which the target mRNA inhibition is, setting by setting: (HepG2, 0.0092593 µM) 24%; (HepG2, 0.0277778 µM) 55%; (HepG2, 0.07 µM) 77% and 85%; (HepG2, 0.0833333 µM) 74%; (HepG2, 0.25 µM) 88%.

On to “RNA1{[moe](A)[sp].[cEt](C)[sp].d(G)[sp].d(T)[sp].d(G)[sp].d(C)[sp].d(A)[sp].d(G)[sp].d(A)[sp].d(G)[sp].d(G)[sp].d(T)[sp].[cEt](G)[sp].[moe](A)[sp].[cEt](A)[sp].[moe](G)}$$$$V2.0”, for which the target mRNA inhibition (HepG2, 0.07 µM) is 71% and 68%.

Take “RNA1{[moe](A)[sp].[cEt](G)[sp].[cEt](G)[sp].d(C)[sp].d(A)[sp].d(C)[sp].d(A)[sp].d(G)[sp].d(C)[sp].d(T)[sp].d(T)[sp].d(G)[sp].d(G)[sp].[cEt](A)[sp].[cEt](G)[sp].[moe](G)}$$$$V2.0”: where the note is “HepG2, 0.07 µM”, the target mRNA inhibition is 12% and 37%.

As for “RNA1{[moe](A)[sp].[cEt](G)[sp].[cEt](T)[sp].d(C)[sp].d(C)[sp].d(A)[sp].d(C)[sp].d(C)[sp].d(A)[sp].d(C)[sp].d(G)[sp].d(A)[sp].d(G)[sp].[cEt](T)[sp].[cEt](C)[sp].[moe](T)}$$$$V2.0”, the target mRNA inhibition (HepG2, 0.07 µM) is 62% and 45%.

For the substance “RNA1{[moe](A)[sp].[cEt](G)[sp].d(A)[sp].d(G)[sp].d(G)[sp].d(T)[sp].d(G)[sp].d(A)[sp].d(A)[sp].d(G)[sp].d(C)[sp].d(G)[sp].[cEt](A)[sp].[moe](A)[sp].[cEt](G)[sp].[moe](T)}$$$$V2.0”, where the note is “HepG2, 0.07 µM”, the target mRNA inhibition was 63% and 76%.

Take “RNA1{[moe](A)[sp].[cEt](G)[sp].d(A)[sp].d(T)[sp].d(G)[sp].d(A)[sp].d(G)[sp].d(G)[sp].d(C)[sp].d(A)[sp].d(T)[sp].d(A)[sp].[cEt](G)[sp].[moe](C)[sp].[cEt](A)[sp].[moe](G)}$$$$V2.0”: under “HepG2, 0.07 µM”, the target mRNA inhibition was 72% and 60%.

Turning to “RNA1{[moe](A)[sp].[cEt](G)[sp].d(G)[sp].d(A)[sp].d(G)[sp].d(T)[sp].d(T)[sp].d(C)[sp].d(C)[sp].d(G)[sp].d(C)[sp].d(A)[sp].[cEt](G)[sp].[moe](T)[sp].[cEt](A)[sp].[moe](T)}$$$$V2.0”, the target mRNA inhibition is 12% (HepG2, 0.0092593 µM); 40% (HepG2, 0.0277778 µM); 74% and 87% (HepG2, 0.07 µM); 62% (HepG2, 0.0833333 µM); 82% (HepG2, 0.25 µM).

Take “RNA1{[moe](A)[sp].[cEt](G)[sp].d(G)[sp].d(C)[sp].d(A)[sp].d(G)[sp].d(A)[sp].d(G)[sp].d(G)[sp].d(T)[sp].d(G)[sp].d(A)[sp].[cEt](A)[sp].[moe](A)[sp].[cEt](A)[sp].[moe](A)}$$$$V2.0”: where the note is “HepG2, 0.07 µM”, the target mRNA inhibition is 39% and 37%.

For the substance “RNA1{[moe](A)[sp].[cEt](G)[sp].d(T)[sp].d(C)[sp].d(C)[sp].d(A)[sp].d(C)[sp].d(C)[sp].d(A)[sp].d(C)[sp].d(G)[sp].d(A)[sp].[cEt](G)[sp].[moe](T)[sp].[cEt](C)[sp].[moe](T)}$$$$V2.0”, the target mRNA inhibition (HepG2, 0.07 µM) was 51% and 43%.

“RNA1{[moe](A)[sp].[cEt](T)[sp].d(T)[sp].d(T)[sp].d(A)[sp].d(T)[sp].d(G)[sp].d(C)[sp].d(C)[sp].d(T)[sp].d(A)[sp].d(C)[sp].[cEt](A)[sp].[moe](G)[sp].[cEt](C)[sp].[moe](C)}$$$$V2.0”: the target mRNA inhibition (HepG2, 0.07 µM) is 44% and 52%.

Turning to “RNA1{[moe](A)[sp].[moe](A)[sp].[moe](C)[sp].[moe](T)[sp].d(G)[sp].d(G)[sp].d(A)[sp].d(G)[sp].d(C)[sp].d(C)[sp].d(A)[sp].d(C)[sp].d(C)[sp].[moe](A)[sp].[moe](G)[sp].[moe](C)}$$$$V2.0”, where the note is “HepG2, 0.07 µM”, the target mRNA inhibition was 52% and 45%.

In the case of “RNA1{[moe](A)[sp].[moe](A)[sp].[moe](C)[sp].d(C)[sp].d(A)[sp].d(C)[sp].d(T)[sp].d(G)[sp].d(A)[sp].d(A)[sp].d(C)[sp].d(A)[sp].d(A)[sp].[cEt](A)[sp].[cEt](T)[sp].[cEt](G)}$$$$V2.0”, for the setting “HepG2, 0.07 µM”, the target mRNA inhibition was 41% and 38%.

Turning to “RNA1{[moe](A)[sp].[moe](A)[sp].[moe](C)[sp].d(T)[sp].d(G)[sp].d(G)[sp].d(A)[sp].d(G)[sp].d(C)[sp].d(C)[sp].d(A)[sp].d(C)[sp].d(C)[sp].[cEt](A)[sp].[cEt](G)[sp].[cEt](C)}$$$$V2.0”, the target mRNA inhibition (HepG2, 0.07 µM) was 56% and 63%.

For the substance “RNA1{[moe](A)[sp].[moe](A)[sp].[moe](G)[sp].[moe](A)[sp].[moe](T)[sp].[moe](G)[sp].d(A)[sp].d(G)[sp].d(G)[sp].d(C)[sp].d(A)[sp].d(T)[sp].d(A)[sp].d(G)[sp].d(C)[sp].[moe](A)[sp].[moe](G)}$$$$V2.0”, the target mRNA inhibition (HepG2, 0.07 µM) is 65% and 41%.

Consider “RNA1{[moe](A)[sp].[moe](A)[sp].[moe](G)[sp].[moe](A)[sp].[moe](T)[sp].d(G)[sp].d(A)[sp].d(G)[sp].d(G)[sp].d(C)[sp].d(A)[sp].d(T)[sp].d(A)[sp].d(G)[sp].[moe](C)[sp].[moe](A)[sp].[moe](G)}$$$$V2.0”, for which the target mRNA inhibition (HepG2, 0.07 µM) was 26% and 34%.

Turning to “RNA1{[moe](A)[sp].[moe](A)[sp].[moe](G)[sp].[moe](C)[sp].[moe](G)[sp].d(A)[sp].d(A)[sp].d(G)[sp].d(T)[sp].d(G)[sp].d(C)[sp].d(A)[sp].d(C)[sp].d(A)[sp].[moe](C)[sp].[moe](G)[sp].[moe](G)}$$$$V2.0”, the target mRNA inhibition is 8% (HepG2, 0.0092593 µM); 26% (HepG2, 0.0277778 µM); 77% and 76% (HepG2, 0.07 µM); 62% (HepG2, 0.0833333 µM); 85% (HepG2, 0.25 µM).
